The text below walks through data of patent publication US8501713B2, “Drug combinations for the treatment of duchenne muscular dystrophy” (Summit Corporation PLC, priority 2007, dated 2013).

The subject of the first experiment is mdx hearts.
Assay: not given
The note with it: Khairallah et al. (2008); cited from earlier work.
Take `CCCc1nn(C)c2c(=O)[nH]c(-c3cc(S(=O)(=O)N4CCN(C)CC4)ccc3OCC)nc12` [sildenafil]: the myocardial contractile performance result is “prevents deterioration of myocardial contractile performance”.

The test system of a further experiment is mdx mice. The experiment can be described thus: Forced exercise treadmill test: fatigue in mdx mice. It counts as in vivo, mdx mouse. The note with it: 50 mg/kg ip daily for 5 weeks in combination with prednisolone, FIG. 4. As to the method:
The effect of combinations of a compound of formula (1) with a corticosteroid (prednisolone) was examined by measuring fatigue induced by a forced exercise regime in mdx mice. Four to five week-old male mdx mice were forced to exercise (30 min running on horizontal treadmill at 12 m/min twice a week on the same day and at the same time) over a five week treatment course. Each treatment group included 6 mice. At the end of the treatment course, exhaustion was induced by running on a horizontal treadmill at 5 m/min for 5 min, with incremental speed increases of 1 m/min each minute until exhaustion. The total distance run was then measured. […] Sedentary and vehicle only groups acted as negative controls.
Take `CCS(=O)(=O)c1ccc2oc(-c3ccc4ccccc4c3)nc2c1` [Example 390, 5-(ethylsulfonyl)-2-(naphthalen-2-yl)benzo[d]oxazole]: the “exercise-induced fatigue (total distance run to exhaustion)” value is “act in synergy to reduce exercise-induced fatigue”.
Same read-out and setting: in the case of `C[C@]12C=CC(=O)C=C1CC[C@@H]1[C@@H]2[C@@H](O)C[C@@]2(C)[C@H]1CC[C@]2(O)C(=O)CO` [PDN, prednisolone, reference compound] it was “act in synergy to reduce exercise-induced fatigue”.

The subject of a further experiment is skeletal muscle cells. Nature of the experiment: Myotube formation and muscle protein expression in primary cultures of skeletal muscle cells. In kind it is cell-based, mice. The note with it: myotube cultures treated for 7 days; Western blot. As to the method:
GTE and EGCG also display unexpected pro myogenic properties. Primary cultures of skeletal muscle cells were established from both normal and dystrophic mice and treated with GTE and EGCG for 1-7 days. […] The amount of myotubes reached similar level with both agents compared to control thereafter. Western-blot analysis was performed on myotube cultures treated for 7 days.
(In general: Immunoblotting shows a protein as a band on a membrane.)
In the case of `O=C(O[C@@H]1Cc2c(O)cc(O)cc2O[C@@H]1c1cc(O)c(O)c(O)c1)c1cc(O)c(O)c(O)c1` [EGCG, epigallocatechin gallate], the “expression of muscle-specific proteins (dystrophin, sarcomeric alpha actinin, MyHC)” value is recorded as “promoted the expression of several muscle-specific proteins”.

The same experiment, now with this note: primary skeletal muscle cell cultures from normal and dystrophic mice; within first 2-4 days; MyHC staining.
As for `O=C(O[C@@H]1Cc2c(O)cc(O)cc2O[C@@H]1c1cc(O)c(O)c(O)c1)c1cc(O)c(O)c(O)c1` [EGCG, epigallocatechin gallate], the “rate of formation of myotubes” value is on record as “concentration-dependently stimulated the rate of formation of myotubes”.

Another experiment has as its system Utrophin A promoter linked to a luciferase reporter gene. The experiment can be described thus: Luciferase reporter assay (murine H2K cells). In kind it is cell-based. The note with it: Mus musculus, H2K mdx, luciferase level relative to control; H2K/mdx/Utro A reporter cells; compound 10 μM final concentration; read-out: Activity. In short, it runs like this:
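Immortalized mdx mouse H2K myoblasts stably carrying a ~5 kb utrophin A promoter–luciferase construct, kept at 33° C, 10% CO2. After 24 hrs plating, compound added at 10 μM final for 48 hrs; luciferase light output read after in-situ lysis.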
(In general: A reporter such as luciferase makes a cellular process visible.)
Take `CCS(=O)(=O)c1ccc2oc(-c3ccc4ccccc4c3)nc2c1` [Example 390, 5-(ethylsulfonyl)-2-(naphthalen-2-yl)benzo[d]oxazole]: the activity at 10 µM was in the range of 301 to 400%.
Turning to `CCCCc1ccc(-c2nc3cc([N+](=O)[O-])ccc3o2)nc1` [Example 250, 2-(5-butylpyridin-2-yl)-5-nitrobenzo[d]oxazole], the activity at 10 µM was less than 200%.
In the case of `O=C(Nc1ccc2oc(-c3ccc(Cl)cc3)nc2c1)c1cccs1` [Example 103, N-(2-(4-chlorophenyl)benzo[d]oxazol-5-yl)thiophene-2-carboxamide], the activity at 10 µM is less than 200%.
`Nc1ccc2oc(-c3ccccc3)nc2c1` [Example 14, 2-phenylbenzo[d]oxazol-5-amine]: the activity at 10 µM lay in the range of 301 to 400%.
Same read-out and setting: with `O=C(Nc1ccccc1)Nc1ccc2oc(-c3ccccc3)nc2c1` [Example 240, 1-phenyl-3-(2-phenylbenzo[d]oxazol-5-yl)urea] the figure was 301 to 400%; with `Nc1ccc2sc(-c3cccc(Cl)c3)nc2c1` [Example 283, 2-(3-chlorophenyl)benzo[d]thiazol-5-amine], more than 401%; with `Cc1ccc(-c2nc3cc(NC(=O)c4ccco4)ccc3o2)cc1` [Example 119, N-(2-p-tolylbenzo[d]oxazol-5-yl)furan-2-carboxamide], less than 200%.
The same measure, in the same setting: with `FC(F)(F)Oc1ccc2oc(-c3ccc4ccccc4c3)nc2c1` [Example 448, 2-(Naphthalen-2-yl)-5-(trifluoromethoxy)benzo[d]oxazole] the figure was more than 401%; with `Nc1ccc2oc(-c3ccc(N4CCCCC4)cc3)nc2c1` [Example 150, 2-(4-(piperidin-1-yl)phenyl)benzo[d]oxazol-5-amine], 201 to 300%.
The same measure, in the same setting: with `CCN(CC)c1ccc(-c2nc3c(ccc4ccccc43)o2)cc1` [Example 146, N,N-diethyl-4-(naphtho[1,2-d]oxazol-2-yl)aniline] the figure was 201 to 300%; with `Nc1ccc(-c2nc3cc(Cl)ccc3o2)cc1` [Example 289, 4-(5-chlorobenzo[d]oxazol-2-yl)aniline], more than 401%.
Take `Cc1ccc(C(=O)Nc2ccc3oc(-c4ccccc4)nc3c2)cc1` [Example 24, 4-methyl-N-(2-phenylbenzo[d]oxazol-5-yl)benzamide]: the activity at 10 µM is less than 200%.
The same measure, in the same setting: with `CC(=O)Nc1ccc(-c2nc3cc(C)c(C)cc3o2)c(O)c1` [Example 433, N-(4-(5,6-dimethylbenzo[d]oxazol-2-yl)-3-hydroxyphenyl)acetamide] the figure was 201 to 300%.
The same measure, in the same setting: in the case of `COc1ccc(OCc2nc3ccccc3[nH]2)cc1` [Example 4, 2-((4-methoxyphenoxy)methyl)-1H-benzo[d]imidazole] it was 201 to 300%; in that of `Nc1ccc2oc(-c3ccccc3Cl)nc2c1` [Example 206, 2-(2-chlorophenyl)benzo[d]oxazol-5-amine], 201 to 300%; in that of `CC(C)C(=O)Nc1ccc2oc(-c3ccc(OC(F)(F)F)cc3)nc2c1` [Example 355, N-(2-(4-(trifluoromethoxy)phenyl)benzo[d]oxazol-5-yl)isobutyramide], less than 200%.
For `Nc1ccc2oc(-c3ccc(C4CCCCC4)cc3)nc2c1` [Example 421, 2-(4-cyclohexylphenyl)benzo[d]oxazol-5-amine], the activity at 10 µM was more than 401%.

The same experiment, now with this note: luciferase reporter assay in murine H2K cells; classified relative to control.
Regarding `O=C(Nc1cccc(-c2nc3ccccc3[nH]2)c1)c1ccccc1` [Example 464], the Activity entry is “+ (Up to 200% relative to control)”.
On the same count and under the same terms, with `Cc1nc2ccc(NC(=O)NC(=O)c3ccccc3Cl)cc2o1` [Example 468] the entry was “+ (Up to 200% relative to control)”; with `Cc1ccc2nc(-c3ccc(NC(=O)C(C)C)cc3)oc2c1` [Example 564], “+ (Up to 200% relative to control)”.
Still for that read-out and setting: with `Cc1ccc2sc(-c3ccc(NC(=O)c4cc(-n5cnnc5)ccc4Cl)cc3)nc2c1` [Example 688] the entry was “++ (Between 201% and 300% relative to control)”.
On the same count and under the same terms, with `COc1cccc(-c2nc3ccccc3[nH]2)c1` [Example 600] the entry was “++ (Between 201% and 300% relative to control)”; with `O=C(CSc1nc2ccccc2s1)N1CCCCC1` [Example 617], “++++ (Above 401% relative to control)”.
